From EP1359152B1, “Diazabicyclic derivatives as nicotinic acetylcholine receptor ligands” (ABBOTT LABORATORIES, priority 1999, dated 2000)
Structures can show the parent of a compound that is named as a salt. Where two headings read alike, the source gives them in different places.

What was measured:
mice = assay: Mouse hot plate paradigm (analgesic effect, latency until tenth jump); assay type: in vivo; details: ip, 0.5 h, minimally effective dose among doses tested, intraperitoneal, dosed 30 minutes prior to testing, hot plate 55 °C, cut-off 180 seconds, increase in tenth jump latency relative to control, read-out: (MED)
Protocol: An in vivo protocol was utilized to determine the effectiveness of nicotinic acetylcholine receptor ligands as analgesic agents in the mouse hot plate paradigm.
Separate groups of mice, (n=8/group) were utilized for each dose group. All drugs were administered by the intraperitoneal route of administration. Test drugs were dissolved in water to make a 6.2 mM stock solution. Animals were dosed with this solution (10 mL/kg body weight) for a 62 micromol/kg dose. Lower doses were administered similarly, following serial dilution of the stock solution in half-log increments. Animals were dosed 30 minutes prior to testing in the hot plate. The hotplate utilized was an automated analgesia monitor (Model #AHP16AN, Omnitech Electronics, Inc. of Columbus, Ohio). The temperature of the hot plate was maintained at 55 °C and a cut-off time of 180 seconds was utilized. Latency until the tenth jump was recorded as the dependent measure. An increase in the tenth jump latency relative to the control was considered an effect.

[1] = target: T1, neuronal nicotinic acetylcholine receptors (Rattus norvegicus, UniProt P09483+P12390); assay: [3H]-cytisine binding to neuronal nicotinic acetylcholine receptors, crude synaptic membranes from whole rat brain
T1 construct: crude synaptic membrane preparations from whole rat brain; from tissue; host or cells: whole rat brain, crude synaptic membranes
Protocol: The In Vitro protocols for determination of nicotinic acetylcholine channel receptor binding potencies of ligands were determined as follows.
Washed membranes were stored at-80 °C prior to use. Frozen aliquots were slowly thawed and resuspended in 20 volumes of buffer (containing: 120 mM NaCl, 5 mM KCI, 2 mM MgCl2, 2 mM CaCl2 and 50 mM Tris-Cl, pH 7.4 @4 °C). After centrifuging at 20,000x g for 15 minutes, the pellets were resuspended in 30 volumes of buffer.
The test compounds were dissolved in water to make 10 mM stock solutions. Each solution was then diluted (1:100) with buffer (as above) and further taken through seven serial log dilutions to produce test solutions from 10^-5 to 10^-11 M.
Samples were incubated for 60 minutes at 4 °C, then rapidly filtered through Whatman GF/B filters presoaked in 0.5% polyethyleneimine using 3 x 4 mL of ice-cold buffer. The filters are counted in 4 mL of Ecolume® (ICN). Nonspecific binding was determined in the presence of 10 µM (-)-nicotine and values were expressed as a percentage of total binding. IC50 values were determined with the RS-1 (BBN) nonlinear least squares curve-fitting program and IC50 values were converted to Ki values using the Cheng and Prusoff correction (Ki=IC50/(1+[ligand]/Kd of ligand).

[2] = [3H]-CYT 1.25 nM, 60 minutes at 4 °C, whole rat brain membranes, Ki from IC50 by Cheng and Prusoff correction, read-out: Average Ki

T1 sequence (P09483 31-630): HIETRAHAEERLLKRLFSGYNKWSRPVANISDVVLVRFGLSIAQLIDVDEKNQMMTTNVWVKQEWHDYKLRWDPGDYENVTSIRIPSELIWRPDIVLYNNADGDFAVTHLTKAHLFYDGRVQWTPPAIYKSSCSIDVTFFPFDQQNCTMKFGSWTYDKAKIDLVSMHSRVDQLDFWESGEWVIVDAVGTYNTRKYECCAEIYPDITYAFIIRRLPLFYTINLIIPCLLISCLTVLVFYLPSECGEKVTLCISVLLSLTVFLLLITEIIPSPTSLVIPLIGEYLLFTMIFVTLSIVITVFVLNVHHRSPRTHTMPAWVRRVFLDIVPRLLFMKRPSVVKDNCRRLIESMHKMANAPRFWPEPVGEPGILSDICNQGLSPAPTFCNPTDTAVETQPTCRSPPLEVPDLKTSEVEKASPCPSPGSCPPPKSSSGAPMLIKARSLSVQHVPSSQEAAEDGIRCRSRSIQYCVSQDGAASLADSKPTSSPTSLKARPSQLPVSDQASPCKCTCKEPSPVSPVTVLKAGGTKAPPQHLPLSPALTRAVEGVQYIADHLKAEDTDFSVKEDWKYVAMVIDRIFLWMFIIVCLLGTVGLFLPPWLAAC
T1 sequence (P12390 25-500): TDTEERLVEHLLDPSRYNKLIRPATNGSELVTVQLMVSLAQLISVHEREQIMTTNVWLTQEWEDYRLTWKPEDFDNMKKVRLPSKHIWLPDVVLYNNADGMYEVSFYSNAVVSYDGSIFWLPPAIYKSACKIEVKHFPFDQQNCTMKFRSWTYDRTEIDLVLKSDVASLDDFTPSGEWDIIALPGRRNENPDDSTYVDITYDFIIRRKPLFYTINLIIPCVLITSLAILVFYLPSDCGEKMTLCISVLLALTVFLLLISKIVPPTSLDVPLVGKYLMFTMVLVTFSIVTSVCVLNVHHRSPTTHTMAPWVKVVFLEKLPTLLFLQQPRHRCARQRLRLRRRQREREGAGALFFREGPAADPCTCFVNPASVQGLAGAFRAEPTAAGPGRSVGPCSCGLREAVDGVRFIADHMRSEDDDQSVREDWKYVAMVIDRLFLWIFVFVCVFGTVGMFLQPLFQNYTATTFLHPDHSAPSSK

SMILES | minimal effective dose (mice) [µmol/kg] | Ki [1] [nM] | Ki [1, 2] [nM]
c1cncc(N2CCC3CCC(C2)N3)c1 (stereo not drawn) [Example 41, 3-(3-pyridinyl)-3,9-diazabicyclo[4.2,1]nonane bis(4-methylbenzenesulfonate)] | 6.2 | 0.03 | 
Oc1cncc(N2C[C@@H]3C[C@H]2CN3)c1 [Example 22, (1S,4S)-2[5-hydroxy-3-pyridinyl]-2,5-diazabicyclo[2.2.1]heptane 4-methylbenzenesulfonate] | 19 | 4.1 | 
Clc1ccc(N2CC3CNCC(C3)C2)cn1 [Example 58, 3-(6-Chloro-3-pyridinyl)-3,7-diazabicyclo[3.3.1]nonane 4-methylbenzenesulfonate] | 0.62 | 0.02 | 
Clc1ccc(N2C[C@H]3C[C@@H]2CN3)nn1 [Example 16, (1R,4R)-2-(6-chloro-3-pyridazinyl)-2,5-diazabicyclo[2.2.1]heptane bis(4-methylbenzenesulfonate)] | 6.2 |  | 
Brc1cncc(N2C[C@@H]3C[C@H]2CN3)c1 [Example 31, (1S,4S)-2-(5-bromo-3-pyridinyl)-2,5-diazabicyclo[2.2.1]heptane 4-methylbenzenesulfonate] | 62 | 1.2 | 
Clc1cc(N2C[C@H]3C[C@@H]2CN3)cnc1Cl [Example 48, (1R,4R)-2-(5,6-dichloro-3-pyridinyl)-2,5-diazabicyclo[2.2.1]heptane 4-methylbenzenesulfonate] | 6.2 | 0.01 | 
NC(=O)c1cncc(N2C[C@@H]3C[C@H]2CN3)c1 [Example 38, (1S,4S)-2-(5-aminocarbonyl-3-pyridinyl)-2,5-diazabicyclo[2.2.1]heptane bis(4-methylbenzenesulfonate)] | 19 | 24 | 
N#CCN1C[C@H]2C[C@@H]1CN2c1ccc(Cl)nc1 [Example 27, (1R,4R)-2-(6-chloro-3-pyridinyl)-5-cyanomethyl-2,5-diazabicyclo[2.2.1]heptane 4-methylbenzenesulfonate] | 1.9 | 0.05 | 
N#Cc1cncc(N2C[C@H]3C[C@@H]2CN3)c1 [Example 44, (1R,4R)-2-(5-cyano-3-pyridinyl)-2,5-diazabicyclo[2,2,1]heptane 4-methylbenzenesulfonate] | 0.62 | 0.03 | 
CN1C2CCC1CN(c1cccnc1)CC2 (stereo not drawn) [Example 37, 9-methyl-3-(3-pyridinyl)-3,9-diazabicyclo[4.2.1]nonane 4-methylbenzenesulfonate] | 6.2 | 0.55 | 
Clc1ccc(N2CCC3CC2CN3)cn1 (stereo not drawn) [Example 35, 2-(6-chloro-3-pyridinyl)-2,6-diazabicyclo[3.2.1]octane trihydrochloride] | 19 |  | 1.5
c1cnnc(N2C[C@H]3C[C@@H]2CN3)c1 [Example 25, (1R,4R)-2-(3-pyridazinyl)-2,5-diazabicyclo[2,2,1]heptane 4-methylbenzenesulfonate] | 19 | 0.4 | 
Oc1cncc(N2C[C@H]3C[C@@H]2CN3)c1 [Example 39, (1R,4R)-2-(5-hydroxy-3-pyridinyl)-2,5-diazabicyclo[2.2.1]heptane 4-methylbenzenesulfonate] | 62 | 0.04 | 
NCc1cncc(N2C[C@@H]3C[C@H]2CN3)c1 [Example 34, (1S,4S)-2-(5-aminomethyl-3-pyridinyl)-2,5-diazabicyclo[2.2.1]heptane trihydrochloride] |  | 140 | 
Clc1ccc(N2C[C@@H]3C[C@H]2CN3)cn1 [Example 1, (1S,4S)-2-(6-chloro-3-pyridinyl)-2,5-diazabicyclo[2,2,1]heptane 4-methylbenzenesulfonate] | 6.2 | 0.041 | 
Clc1ccc(N2CCC3CCC(C2)N3)cn1 (stereo not drawn) [Example 36, 3-(6-chloro-3-pyridinyl)-3,9-diazabicyclo[4.2.1]nonane hydrochloride] | 1.9 | 0.06 | 
c1cncc(N2CC3CCC2CN3)c1 (stereo not drawn) [Example 42, 2-(3-pyridinyl)-2.5-diazabicyclo[2.2.2]octane dihydrochloride] |  |  | 0.02

SMILES | minimal effective dose (mice) [µmol/kg] | Ki [1] [nM] | Ki [1, 2] [nM]
O=[N+]([O-])c1ccc(N2CC3CC2CN3)cn1 [Example 28, (1S,4S)-2-(6-nitro-3-pyridinyl)-2.5-diazabicyclo[2.2.1]heptane] |  |  | 109
Fc1ccc(N2C[C@@H]3C[C@H]2CN3)cn1 [Example 30, (1S,4S)-2-(6-fluoro-3-pyridinyl)-2,5-diazabicyclo[2.2.1]heptane bis(4-methylbenzenesulfonate)] | 1.9 | 0.17 | 
Clc1nnc(N2C[C@@H]3C[C@H]2CN3)c2ccccc12 [Example 7, (1S,4S)-2-(4-chloro-1-phthalazinyl)-2,5-diazabicyclo[2.2.1]heptane bis(4-methylbenzenesulfonate)] |  | 1900 | 
Cc1ccc(N2C[C@@H]3C[C@H]2CN3)cn1 [Example 23, (1S,4S)-2-(6-methyl-3-pyridinyl)-2,5-diazabicyclo[2.2.1]heptane 4-methylbenzenesulfonate] | 62 | 1.6 | 
Cc1cc(N2C[C@@H]3C[C@H]2CN3)nnc1Cl [Example 4, (1S,4S)-2-(6-chloro-5-methyl-3-pyridazinyl)-2,5-diazabicyclo[2,2,1]heptane bis(4-methylbenzenesulfonate)] | 62 | 3.8 | 
Clc1ccc(N2C[C@H]3C[C@@H]2CN3)cn1 [Example 15, (1R,4R)-2-(6-chloro-3-pyridinyl)-2,5-diazabicyclo[2.2.1]heptane 4-methylbenzenesulfonate] | 0.62 | 0.01 | 
Cc1cc(N2C[C@@H]3C[C@H]2CN3C)nnc1Cl [Example 6, (1S,4S)-2-(6-chloro-5-methyl-3-pyridazinyl)-5-methyl-2,5-diazabicyclo[2.2.1]heptane bis(4-methylbenzenesulfonate)] |  | 22 | 
Cc1cc(N2C[C@H]3C[C@@H]2CN3)cnc1Cl [Example 47, (1R,4R)-2-(6-chloro-5-methyl-3-pyridinyl)-2,5-diazabicyclo[2.2.1]heptane 4-methylbenzenesulfonate] | 6.2 | 0.009 | 
COc1ccc(N2C[C@H]3C[C@@H]2CN3)cn1 [Example 46, (1R,4R)-2-(6-methoxy-3-pyridinyl)-2,5-diazabicyclo[2.2.1]heptane 4-methylbenzenesulfonate] | 6.2 | 0.25 | 
Fc1ccc(N2C[C@H]3C[C@@H]2CN3)cn1 [Example 33, (1R,4R)-2-(6-fluoro-3-pyridinyl)-2,5-diazabicyclo[2.2.1]heptane 4-methylbenzenesulfonate] | 0.19 | 0.03 | 
COc1cc(N2C[C@H]3C[C@@H]2CN3)cnc1Cl [Example 51, (1R,4R)-2-(6-chloro-5-methoxy-3-pyridinyl)-2,5-diazabicyclo[2.2.1]heptane 4-methylbenzenesulfonate] |  | 0.1 | 
NC(=O)c1cncc(N2CC3CC2CN3)c1 [Example 50, (1R,4R)-2-(5-aminocarbonyl-3-pyridinyl)-2.5-diazabicvclo[2.2.1]heptane bis(4-methylbenzenesulfonate)] |  |  | 0.83
c1cncc(CN2C[C@H]3C[C@@H]2CN3)c1 [Example 20, (1R,4R)-2-(3-pyridinylmethyl)-2,5-diazabicyclo[2.2.1]heptane trihydrobromide] | 62 | 52 | 
c1cnc2cc(N3C[C@H]4C[C@@H]3CN4)sc2c1 [Example 55, (1R,4R)-2-(thieno[3,2-b]pyridin-2-yl)-2,5-diazabicyclo[2.2.1]heptane acetate] |  | 0.84 | 
c1cncc(N2CC3CNCC(C3)C2)c1 [Example 57, 3-(3-pyridinyl)-3,7-diazabicyclo[3.3.1]nonane bis(4-methylbenzenesulfonate)] | 1.9 |  | 0.02
c1cnnc(N2C[C@@H]3C[C@H]2CN3)c1 [Example 29, (1S,4S)-2-(3-pyridazinyl)-2,5-diazabicyclo[2.2.1]heptane 4-methylbenzenesulfonate] |  | 37 | 
c1ncc(N2C[C@@H]3C[C@H]2CN3)cn1 [Example 52, (1S,4S)-2-(5-pyrimidinyl)-2,5-diazabicyclo[2.2.1]heptane 4-methylbenzenesulfonate] |  | 1 | 
